Consider 2 compounds from patent US20070082949A1, “Agent for preventing and treating language disorders” (priority 2003, published 2007).

One series has as its system language disorder. The series can be described thus: Effect of EPA-E on a language-disordered patient with a history of cerebral infarction. Format: in vivo, human. The method, then: A person with the history of cerebral infarction was treated. The patient experienced cerebral infarction in November, 2001, and started rehabilitation therapy of left hemiplegia from April, 2002. In June, 2002, the patient was hospitalized for 1 month because of recurrence of the cerebral infarction, and again started the rehabilitation therapy from August, 2002. The drugs that the patient had been taking before the EPA-E include: Gramalil (trade name; manufactured by Fujisawa Pharmaceutical Co., Ltd.; generic name, tiapride hydrochloride), Ketas (trade name; manufactured by Kyorin Pharmaceutical Co., Ltd.; generic name, ibudilast), Panaldine (trade name; manufactured by Daiichi Pharmaceutical Co., Ltd.; generic name, ticlopidine hydrochloride), Nivadil (trade name; manufactured by Fujisawa Pharmaceutical Co., Ltd.; generic name, nilvadipine), Altat (trade name; manufactured by Teikoku Hormone Mfg. Co., Ltd.; generic name, roxatidine acetate hydrochloride).
Before taking EPA-E, the patient could barely bring out a word. From September, 2002, the patient was administered with Epadel S600 (trade name; manufactured by Mochida Pharmaceutical Co., Ltd.; generic name, ethyl icosapentate) at a dose 600 mg and 3 times a day (namely, at a daily dose of 1800 mg).

Series [1] has as its system cell derived from mouse connective tissue. To be noted: cited from earlier work.
Another series deals with rat. To be noted: delayed discrimination test in rat; cited from earlier work.

SMILES strings stand for the structures.

With `CC/C=C\C/C=C\C/C=C\C/C=C\C/C=C\CCCC(=O)O` [EPA, all-cis-5,8,11,14,17-icosapentaenoic acid], the “side effects (overall conclusion)” value in the series on language disorder (human, in vivo) is recorded as “no side effects”. In the series on language disorder (summary of Example 1), the “therapeutic effect for language disorder (overall conclusion)” value is “significant therapeutic effects for language disorder”. Moreover, the NGF production result in series [1] is on record as “action of enhancing NGF production”. In addition, the correct reaction rate result with rat is reported as “increase of correct reaction rate”.

Turning to `CC/C=C\C/C=C\C/C=C\C/C=C\C/C=C\CCCC(=O)OCC` [EPA-E, ethyl icosapentate], the “speech / conversation of the patient” value is “able to carry on a complicated conversation comprising not only a single word but a plurality of words” with language disorder (1800 mg/day from September 2002, December 2002); “responding “not hurting anywhere” when fallen from the bed, and waking up at night and responding “I am not sleepy”” with language disorder (1800 mg/day from September 2002, November 2002); “started to respond by saying “Good morning”, and also started brief conversation with the care giver during the meal” in the series with language disorder (person, Epadel S600 600 mg 3 times a day (1800 mg/day) from September 2002, late October 2002). Further, the “frequency of conversation, vocabulary, communication ability” value with language disorder (1800 mg/day from September 2002, February 2003) is on record as “further improvement was noted in the frequency of conversation, vocabulary, communication ability”. Also, the “frequency of conversation and vocabulary” value in the series on language disorder (1800 mg/day from September 2002, January 2003) is given as “the frequency of the conversation as well as vocabulary increased even further”. For the same compound, the adverse events result in the series on language disorder (1800 mg/day, 6 months from the start of the administration) is “no adverse event suggested to be caused by EPA-E was found”.
